Experimental data as given in US8026069B2, “Process for identification of compounds for modulating the activity of sodium/calcium exchange transporter” (Sanofi-Aventis Deutschland GmbH, priority 2004, dated 2011).

Target: T1, NCX1-containing HEK membrane fragments (human cardiac sodium calcium exchanger NCX-1) (Homo sapiens, UniProt P32418)
T1 construct: expressed in transfected cells; host or cells: HEK-293 (Flp-In T-Rex-293-NCX1, DSM ACC2670), doxycycline-induced; membrane fragments
Experiment: cell free electrophysiological sensor chip (SurfE2R) NCX assay, current on Ca2+ concentration jump
Type: biochemical
Conditions: 5 mM
Description: 10-30 μl, for example, of NCX-containing membrane fragments were applied and circulated on the sensor chip and preferably incubated for at least 12 hours at 4° C. In preferred cases of experiments the NCX protein is a human NCX1 protein. The capacitance of the protein-loaded sensor chip was preferably around 100 nF cm^−2 and the conductance G1s preferably around 10 nS cm^−2. The principal of the assay is to test the electrical activity of NCX protein in the absence of the inhibitor and afterwards in the presence of the inhibitor. For this reason the NCX-sensor chip is rinsed with a sequence of solutions, which activate NCX. In general, there is the possibility to test whether an inhibitor is reversible. In this case after the inhibitor application the solutions are changed back to inhibitor-free conditions. Before the experiment the solution reservoirs of the chip are filled with the following preferred solutions: washing buffer: 40 mM KCl, 100 mM NaCl, 4 mM MgCl2, 30 mM HEPES/NMG pH 7.4; non-activating solution: 140 mM KCl, 4 mM MgCl2, 30 mM HEPES/NMG pH 7.4; activating solution: 140 mM KCl, 4 mM MgCl2, 30 mM HEPES/NMG pH 7.4, 0.5 mM CaCl2. […]
For the determination of its activity, the NCX protein was treated consecutively with a washing, non-activating and activating solution and the electrical current was measured when changing from […] to activating treatment. […]

Compound: [Ni+2] [Ni^2+]
- effect on NCX current in control experiments: diminished
